Measured values as given in patent US8455497B2, “Inhibitors of aspartyl protease” (Vertex Pharmaceuticals Incorporated, priority 1999, dated 2013).

Each compound was assayed on HIV-1 (strain IIIB) (assay: Antiviral activity assay in MT4 cells (propidium iodide based)). Conditions: Human immunodeficiency virus 1, IIIB; wild type HIV-1 virus, MT4 cells; read-out: Wildtype virus - IC50.
Assay type: cell-based
Protocol: Antiviral Activity Assay in MT4 Cells
Aliquots of the test compounds were serially diluted in medium (RPMI 1640, 10% fetal calf serum (FCS), and gentamycin) in 96-well plates (Costar 3598) using a Cetus Pro/Pette. Exponentially growing MT4 cells were harvested and centrifuged at 1000 rpm for 10 min in a Jouan centrifuge (model CR 4 12). Cell pellets were resuspended in fresh medium (RPMI 1640, 20% FCS, 20% IL-2, and gentamycin) to a density of 5×10^5 cells/ml. Cell aliquots were infected by the addition of HIV-1 (strain IIIB) diluted to give a viral multiplicity of infection of 100×TCID50. A similar cell aliquot was diluted with medium to provide a mock-infected control. Cell infection was allowed to proceed for 1 hr at 37° in a tissue culture incubator with humidified 5% CO2 atmosphere. After the 1 hr incubation the virus/cell suspensions were diluted 6-fold with fresh medium, and 125 μl of the cell suspension was added to each well of the plate containing pre-diluted compound. Plates were then placed in a tissue culture incubator with humidified 5% CO2 for 5 days. At the end of the incubation period, 27 μl of 5% Nonidet-40 was added to each well of the incubation plate. After thorough mixing with a Costar multitip pipetter, 60 μl of the mixture was transferred to filter-bottomed 96-well plates. The plates were analyzed in an automated assay instrument (Screen Machine, Idexx Laboratories). The assay makes use of a propidium iodide dye to estimate the DNA content of each well.
The anti-viral potency in MT-4 cells of the compounds set forth in Tables 1 and 2 was determined using the above technique.

IC50	SMILES
10 to 100 nM	CC(C)CN(C[C@@H](O)[C@H](Cc1ccc(OCCCN)cc1)NC(=O)OC1CO[C@H]2OCC[C@@H]12)S(=O)(=O)c1ccc2c(c1)OCO2 (stereo in doubt) [Compound 222, (3R,3aS,6aR)-hexahydrofuro[2,3-b]furan-3-yl (1S,2R)-1-[4-(3-aminopropoxy)benzyl]-3-[(1,3-benzodioxol-5-ylsulfonyl)(isobutyl)amino]-2-hydroxypropylcarbamate]

Same assay, conditions: Human immunodeficiency virus 1, MT4, 120 h; MT-4 cells, HIV-1 strain IIIB, 5 days; read-out: IC50 (Antiviral Activity of Compounds of the Invention)

IC50	SMILES
> 100 nM	CC(C)CN(C[C@@H](O)[C@H](Cc1ccc(OCCN2CCOCC2)cc1)NC(=O)OC(C)(C)C)S(=O)(=O)c1ccc2c(c1)OCO2 [Compound 17, Boc Methylenedioxybenzenesulfonamide Ethylmorpholine Tethered Product]
10 to 100 nM	COCCN(CCOC)CCOc1ccc(C[C@H](NC(=O)OC(C)(C)C)[C@H](O)CN(CC(C)C)S(=O)(=O)c2ccc3c(c2)OCO3)cc1 [Compound 18, Boc Methylenedioxybenzenesulfonamide Bis-Methoxyethylamine Tethered Product]
10 to 100 nM	CC(C)CN(C[C@@H](O)[C@H](Cc1ccc(OCCCN2CCOCC2)cc1)NC(=O)OC(C)(C)C)S(=O)(=O)c1ccc2c(c1)OCO2 [Compound 20, Boc Methylenedioxybenzenesulfonamide Propylmorpholine Tethered Product]
10 to 100 nM	CC(C)CN(C[C@@H](O)[C@H](Cc1ccc(OCC(=O)N2CCOCC2)cc1)NC(=O)OC(C)(C)C)S(=O)(=O)c1ccc2c(c1)OCO2 [Compound 21, Boc methylenedioxybenzenesulfonamide Acetylmorpholine Tethered Product]
1 to 10 nM	CC(C)CN(C[C@@H](O)[C@H](Cc1ccc(OCCN2CCOCC2)cc1)NC(=O)O[C@H]1CO[C@H]2OCC[C@H]21)S(=O)(=O)c1ccc2c(c1)OCO2 [Compound 48, Bis-THF Methylenedioxybenzenesulfonamide Ethylmorpholine Tethered Product]
1 to 10 nM	CC(C)CN(C[C@@H](O)[C@H](Cc1ccc(OCCCN2CCOCC2)cc1)NC(=O)O[C@H]1CO[C@H]2OCC[C@H]21)S(=O)(=O)c1ccc2c(c1)OCO2 [Compound 49, Bis-THF Methylenedioxybenzenesulfonamide Propylmorpholine Tethered Product]
10 to 100 nM	CC(C)CN(C[C@@H](O)[C@H](Cc1ccc(OCC(=O)N2CCOCC2)cc1)NC(=O)O[C@H]1CO[C@H]2OCC[C@H]21)S(=O)(=O)c1ccc2c(c1)OCO2 [Compound 50, Bis-THF Methylenedioxybenzenesulfonamide Acetylmorpholine Tethered Product]

Continued, compound first:

SMILES	IC50
CC(C)CN(C[C@@H](O)[C@H](Cc1ccc(OCc2ccccc2)cc1)NC(=O)O[C@H]1CO[C@H]2OCC[C@H]21)S(=O)(=O)c1ccc2nc(N)sc2c1 [Compound 44, Bis-THF Benzothiazolesulfonamide Benzyl Ether]	< 1 nM
COCCN(CCOC)CCOc1ccc(C[C@H](NC(=O)O[C@H]2CO[C@H]3OCC[C@H]32)[C@H](O)CN(CC(C)C)S(=O)(=O)c2ccc3c(c2)OCO3)cc1 [Compound 51, Bis-THF Methylenedioxybenzenesulfonamide Bis-Methoxyethylamine Tethered Product]	1 to 10 nM
Cc1cc(C)n(COc2ccc(C[C@H](NC(=O)O[C@H]3CO[C@H]4OCC[C@H]43)[C@H](O)CN(CC(C)C)S(=O)(=O)c3ccc4c(c3)OCO4)cc2)n1 [Compound 56, Bis-THF Methylenedioxybenzenesulfonamide 1-methyl-3,5-dimethylpyrazole Tethered Product]	10 to 100 nM

Same assay, conditions: MT-4 cells, HIV-1 strain IIIB, 5 days; read-out: IC50 (Antiviral Activity of Compounds of the Invention)

IC50	SMILES
> 100 nM	CC(C)CN(CC(O)C(Cc1ccc(OCCN2CCOCC2)cc1)NC(=O)OC(C)(C)C)S(=O)(=O)c1ccc(N)cc1 (stereo not drawn) [Compound 10]
> 100 nM	CC(C)CN(CC(O)C(Cc1ccc(OCCCN2CCOCC2)cc1)NC(=O)OC(C)(C)C)S(=O)(=O)c1ccc(N)cc1 (stereo not drawn) [Compound 11]
> 100 nM	CC(C)CN(CC(O)C(Cc1ccc(OCCN2CCOCC2)cc1)NC(=O)OC(C)(C)C)S(=O)(=O)c1cccc(N)c1 (stereo not drawn) [Compound 15]
> 100 nM	CC(C)CN(CC(O)C(Cc1ccc(OCCCN2CCOCC2)cc1)NC(=O)OC(C)(C)C)S(=O)(=O)c1cccc(N)c1 (stereo not drawn) [Compound 16]
10 to 100 nM	CC(C)CN(CC(O)C(Cc1ccc(OCCN2CCOCC2)cc1)NC(=O)OC1CCOC1)S(=O)(=O)c1cccc(N)c1 (stereo not drawn) [Compound 23]
10 to 100 nM	COCCN(CCOC)CCOc1ccc(CC(NC(=O)OC2CCOC2)C(O)CN(CC(C)C)S(=O)(=O)c2ccc3c(c2)OCO3)cc1 (stereo not drawn) [Compound 24]
10 to 100 nM	CC(C)CN(CC(O)C(Cc1ccc(OCCCN2CCOCC2)cc1)NC(=O)OC1COC2OCCC12)S(=O)(=O)c1ccc(N)cc1 (stereo not drawn) [Compound 30]
10 to 100 nM	CC(C)CN(CC(O)C(Cc1ccc(OCCN2CCOCC2)cc1)NC(=O)OC1COC2OCCC12)S(=O)(=O)c1cccc(N)c1 (stereo not drawn) [Compound 37]

Second part, the compound before the results:

SMILES	IC50
COCCN(CCOC)CCOc1ccc(CC(NC(=O)OC(C)(C)C)C(O)CN(CC(C)C)S(=O)(=O)c2cccc(N)c2)cc1 (stereo not drawn) [Compound 13]	> 100 nM
COCCN(CCOC)CCOc1ccc(CC(NC(=O)OC2CCOC2)C(O)CN(CC(C)C)S(=O)(=O)c2cccc(N)c2)cc1 (stereo not drawn) [Compound 22, bis-THF m-aminophenylsulfonamide benzyl ether]	10 to 100 nM
COCCN(CCOC)CCOc1ccc(CC(NC(=O)OC2COCOC2)C(O)CN(CC(C)C)S(=O)(=O)c2cccc(N)c2)cc1 (stereo not drawn) [Compound 25]	10 to 100 nM
CC(C)CN(CC(O)C(Cc1ccc(OCc2ccccc2)cc1)NC(=O)OC1COC2OCCC12)S(=O)(=O)c1ccc(N)cc1 (stereo not drawn) [Compound 26]	< 1 nM
COCCN(CCOC)CCOc1ccc(CC(NC(=O)OC2COC3OCCC23)C(O)CN(CC(C)C)S(=O)(=O)c2ccc(N)cc2)cc1 (stereo not drawn) [Compound 27]	> 100 nM
CC(C)CN(CC(O)C(Cc1ccc(OCCN2CCOCC2)cc1)NC(=O)OC1COC2OCCC12)S(=O)(=O)c1ccc(N)cc1 (stereo not drawn) [Compound 29]	10 to 100 nM
CC(C)CN(CC(O)C(Cc1ccc(OCc2ccccn2)cc1)NC(=O)OC1COC2OCCC12)S(=O)(=O)c1ccc(N)cc1 (stereo not drawn) [Compound 31]	1 to 10 nM
CC(C)CN(CC(O)C(Cc1ccc(O)cc1)NC(=O)OC1COC2OCCC12)S(=O)(=O)c1ccc(N)cc1 (stereo not drawn) [Compound 32]	10 to 100 nM
Cc1cc(COc2ccc(CC(NC(=O)OC3COC4OCCC34)C(O)CN(CC(C)C)S(=O)(=O)c3ccc(N)cc3)cc2)no1 (stereo not drawn) [Compound 33]	10 to 100 nM
COCCN(CCOC)CCOc1ccc(CC(NC(=O)OC2COC3OCCC23)C(O)CN(CC(C)C)S(=O)(=O)c2cccc(N)c2)cc1 (stereo not drawn) [Compound 34]	> 100 nM
Cc1cc(COc2ccc(CC(NC(=O)OC3COC4OCCC34)C(O)CN(CC(C)C)S(=O)(=O)c3cccc(N)c3)cc2)no1 (stereo not drawn) [Compound 35]	10 to 100 nM
CC(C)CN(CC(O)C(Cc1ccc(OCc2ccccn2)cc1)NC(=O)OC1COC2OCCC12)S(=O)(=O)c1cccc(N)c1 (stereo not drawn) [Compound 36]	10 to 100 nM
Cc1cc(S(=O)(=O)N(CC(C)C)CC(O)C(Cc2ccc(OCc3ccccc3)cc2)NC(=O)OC2COC3OCCC23)ccc1O (stereo not drawn) [Compound 38]	< 1 nM
CC(C)CN(CC(O)C(Cc1ccc(OCc2ccccc2)cc1)NC(=O)OC1COC2OCCC12)S(=O)(=O)c1ccc2c(c1)OCO2 (stereo not drawn) [Compound 46, Bis-THF Methylenedioxybenzenesulfonamide Benzyl Ether]	< 1 nM
